Measured values from ChEMBL document CHEMBL1129716, “Indolizidine derivatives as potential substance P antagonists” (Bioorg Med Chem Lett, 1996).

Biological target: Substance-P receptor (Homo sapiens, UniProt P25103)
Experiment: Binding affinity was carried out with NK 1 receptors from U-373MG human astrocytoma cell line
Format: cell-based
Conditions: u-373mg atcc

Chain of Substance-P receptor (P25103 whole entry): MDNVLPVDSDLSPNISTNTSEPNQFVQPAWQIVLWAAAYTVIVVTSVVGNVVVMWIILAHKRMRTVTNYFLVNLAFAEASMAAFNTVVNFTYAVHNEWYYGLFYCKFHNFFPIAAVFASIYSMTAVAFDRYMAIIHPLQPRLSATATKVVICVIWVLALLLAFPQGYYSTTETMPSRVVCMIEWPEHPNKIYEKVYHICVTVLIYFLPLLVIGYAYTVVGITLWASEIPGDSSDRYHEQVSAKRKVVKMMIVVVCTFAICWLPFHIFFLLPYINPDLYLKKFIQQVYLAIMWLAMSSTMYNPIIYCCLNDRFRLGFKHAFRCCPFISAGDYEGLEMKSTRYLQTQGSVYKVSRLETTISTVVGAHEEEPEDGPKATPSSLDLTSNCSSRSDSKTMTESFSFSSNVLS

Row | SMILES | Log Ki
1 | C=C1CN2CCC[C@H](NCc3ccccc3OC)[C@@]2(c2ccccc2)C1 | < -7
2 | COc1ccccc1CN[C@H]1CCCN2CCC[C@]12c1ccccc1 | < -7
